Results from ChEMBL document CHEMBL1201862, “PubChem BioAssay data set” (2004).
Activity calls are given as the source filed them.

What was measured:
[1] = reduction of Shn3 3'UTR-driven luciferase in osteoblasts – cell-based, Clone20 osteoblasts, firefly luciferase, cherry-picked, dose response (AID 624132); assay type: functional;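 also: firefly luciferase luminescence from reporter carrying the Shn3 3'UTR in osteoblasts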
[2] = target: T1, Heat shock factor protein 1 (Mus musculus, UniProt P38532); experiment: decrease of HSF1-responsive luciferase luminescence – cell-based, NIH3T3, dose retest, confirmation (AID 2382); assay type: functional;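 also: NIH3T3 fibroblasts with HSF1-driven luciferase reporter stressed by proteasome inhibitor MG132; luminescence from HSF1-driven luciferase expression after 8 hours of MG132 stress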
T1 sequence (P38532 whole entry): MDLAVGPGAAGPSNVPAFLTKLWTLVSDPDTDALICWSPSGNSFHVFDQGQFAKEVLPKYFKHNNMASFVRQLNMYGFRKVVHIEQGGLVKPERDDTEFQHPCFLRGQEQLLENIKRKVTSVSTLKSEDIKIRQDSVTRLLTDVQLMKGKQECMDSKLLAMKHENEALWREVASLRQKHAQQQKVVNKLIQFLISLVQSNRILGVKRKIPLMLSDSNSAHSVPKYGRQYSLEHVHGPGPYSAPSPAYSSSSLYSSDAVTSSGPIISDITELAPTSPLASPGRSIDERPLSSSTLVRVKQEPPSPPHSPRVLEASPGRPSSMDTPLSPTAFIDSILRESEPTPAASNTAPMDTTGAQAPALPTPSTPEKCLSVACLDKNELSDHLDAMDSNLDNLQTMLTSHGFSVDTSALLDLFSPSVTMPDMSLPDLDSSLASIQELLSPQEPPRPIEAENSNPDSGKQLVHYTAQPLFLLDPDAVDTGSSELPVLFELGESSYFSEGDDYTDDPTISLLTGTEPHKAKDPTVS

Streptokinase A = target: T2, Streptokinase A (Streptococcus pyogenes serotype M1, UniProt P10520); experiment: viability-normalized secreted streptokinase activity reduction – plasminogen activation absorbance, OD405, dose response (AID 1914); assay type: functional, Streptococcus pyogenes M1 GAS;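 also: secreted streptokinase activity via plasminogen activation per viability signal from cell pellet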
T2 sequence (P10520 whole entry): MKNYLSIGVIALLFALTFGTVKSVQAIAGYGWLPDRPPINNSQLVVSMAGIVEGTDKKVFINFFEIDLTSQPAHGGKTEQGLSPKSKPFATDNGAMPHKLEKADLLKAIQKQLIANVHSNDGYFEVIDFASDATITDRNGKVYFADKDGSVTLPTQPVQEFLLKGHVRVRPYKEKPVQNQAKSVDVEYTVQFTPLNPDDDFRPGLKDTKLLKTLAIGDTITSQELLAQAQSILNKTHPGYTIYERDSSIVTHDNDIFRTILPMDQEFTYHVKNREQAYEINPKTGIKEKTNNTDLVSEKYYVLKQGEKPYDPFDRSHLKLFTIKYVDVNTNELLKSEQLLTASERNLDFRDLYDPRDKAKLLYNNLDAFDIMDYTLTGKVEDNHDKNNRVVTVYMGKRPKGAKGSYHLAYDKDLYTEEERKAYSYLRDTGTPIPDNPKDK

[3] = test system: Streptococcus sp. 'group A'; experiment: Streptococcus pyogenes SK(-)GAS viability under kanamycin – luminescence, BacTiterGlo, confirmation, counter-screen for streptokinase expression inhibitor project, dose response (AID 1900); assay type: functional, organism-based
Streptococcus = experiment: GAS UMAA2166 growth inhibition – luminescence, BacTiterGlo, counter-screen for streptokinase expression inhibitor project, dose response (AID 1915); assay type: functional, organism-based;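 also: potency for reduction of bacterial viability or growth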
Cytochrome P450 2C9 = Cytochrome P450 2C9 (Homo sapiens, UniProt P11712)
INS1 = experiment: INS-1E survival protection against cytokine death – cell-based, luminescence, retest, dose response (AID 449756); assay type: functional; conditions: Rattus norvegicus;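 also: cell death triggered by IL-1 beta plus TNF-alpha plus IFN-gamma mixture; protective hits raise ATP signal compared with cytokine alone wells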
[4] = target: T1, Heat shock factor protein 1; experiment: enhancement of HSF1-driven luciferase signal – cell-based, NIH3T3, luminescence, dose retest, confirmation (AID 435004); assay type: functional;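 also: stress induced by proteasome inhibitor MG132 added 30 min after compound; luciferase reporter driven by HSF1 response element in NIH3T3 cells; actives raise luminescence as potentiators of the MG132 stress response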
[5] = loss of viability in HepG2 cells – cell-based, CellTiter-Glo, cherry-picked, cytotoxicity control for Shn3 inhibitor project, dose response (AID 624134); assay type: functional
[6] = non-specific 3'UTR reporter inhibition in Clone20-Shn3RL – cell-based, Renilla luciferase, cherry-picked, counter-screen for Shn3 inhibitor project, dose response (AID 624133); assay type: functional

Sequence of Cytochrome P450 2C9 (P11712 whole entry): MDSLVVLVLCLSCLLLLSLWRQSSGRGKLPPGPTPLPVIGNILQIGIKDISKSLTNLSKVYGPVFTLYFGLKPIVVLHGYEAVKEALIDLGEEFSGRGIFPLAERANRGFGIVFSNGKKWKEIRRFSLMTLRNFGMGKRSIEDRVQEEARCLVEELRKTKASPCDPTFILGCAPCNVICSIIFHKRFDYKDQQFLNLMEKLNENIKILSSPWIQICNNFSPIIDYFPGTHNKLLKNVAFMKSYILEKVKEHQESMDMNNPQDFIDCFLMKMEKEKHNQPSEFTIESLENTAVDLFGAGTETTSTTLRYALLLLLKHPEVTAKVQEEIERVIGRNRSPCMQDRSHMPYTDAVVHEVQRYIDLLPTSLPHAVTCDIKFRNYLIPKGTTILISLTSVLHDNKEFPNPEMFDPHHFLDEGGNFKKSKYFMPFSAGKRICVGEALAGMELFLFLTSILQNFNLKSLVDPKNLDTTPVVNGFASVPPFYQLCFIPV

## CCCC(c1nnnn1Cc1ccc(OC)cc1)N1CCN(c2ccccc2)CC1 (stereo not given)
[1]
  AC50: 31.9 µM (active)

## CC1Cc2ccccc2N1C(=O)C12CCC(C)(C(=O)C1)C2(C)C (stereo not given)
[2]
  EC50: > 195 µM (not active)

## Cc1cc(NC(=S)N(Cc2ccc(Cl)cc2)Cc2ccc(C(=O)O)cc2)ccc1Cl
Streptokinase A
  EC50: > 150 µM (not active)
[3]
  EC50: 10.1 µM (active)
Streptococcus
  EC50: > 150 µM (not active)

## CC(=O)Nc1ccc(Cc2ccncc2)cc1
[2]
  EC50: > 195 µM (not active)

## COc1cc(-c2ccc(NC(=O)NC3CC3)c(OC)c2)ccc1NC(=O)NC1CC1
Streptokinase A
  EC50: > 150 µM (not active)
[3]
  EC50: 117 µM (active)
Streptococcus
  EC50: 135 µM (active)

## O=C(Nc1ccc(N2CCOCC2)cc1)c1cc(-c2ccncc2)nc2ccccc12
[2]
  EC50: > 195 µM (not active)

## COc1ccc(NC(=O)c2cccnc2)cc1OCC(C)C
[2]
  EC50: > 195 µM (not active)

## O=c1cc2c(nn1Cc1ccc(Cl)cc1Cl)-c1ccccc1CC2
Streptokinase A
  EC50: 11 µM (active)
[3]
  EC50: 7.36 µM (active)
Streptococcus
  EC50: 17.6 µM (active)

## CC(C)C[C@@H](CC#N)N1CCN(Cc2ccccc2)CCC1=O
[2]
  EC50: > 195 µM (not active)

## COCC(=O)N1CCC2(CCCN(c3ccc(-c4ccccc4)cc3)C2)CC1
Cytochrome P450 2C9
  AC50: 20 µM (inconclusive)

## O=C(Nc1ccc(N2C(=O)C3C4C=CC(C4)C3C2=O)cc1)Nc1nncs1 (stereo not given)
[2]
  EC50: > 195 µM (not active)

## O=[N+]([O-])c1cccc(-c2nc(-c3ccncc3)no2)c1
Cytochrome P450 2C9
  AC50: 8.91 µM (inconclusive)

## Oc1cc(O)nc(SCc2ccc(Cl)cc2)n1
Streptokinase A
  EC50: > 150 µM (not active)
[3]
  EC50: 81.5 µM (active)
Streptococcus
  EC50: > 150 µM (not active)

## COc1cccc(CNCC(O)(c2ccc(Cl)cc2)c2ccc(Cl)cc2)c1
Streptokinase A
  EC50: 18.9 µM (active)
[3]
  EC50: 3.15 µM (active)
Streptococcus
  EC50: 18.2 µM (active)

## CCCC(=O)N(CCN(C(=O)CCC)c1ccccc1)c1ccccc1
INS1
  AC50: 183 µM (active)

## COC(=O)c1ccc(CNC(=O)C(NC(=O)c2ccco2)C(C)C)cc1 (stereo not given)
[2]
  EC50: > 195 µM (not active)

## CCn1c(SCC(=O)c2ccccc2)nnc1-c1cccs1
Cytochrome P450 2C9
  AC50: 28.2 µM (inconclusive)

## COc1ccc(N=C(S)Nc2ccccc2SC)c(OC)c1
[4]
  EC50: > 260 µM (inactive)

## O=C(NCc1ccco1)C1CC(O)CN1C(=O)Nc1ccccc1 (stereo not given)
[4]
  EC50: > 260 µM (inactive)

## COc1cc(OC)c(OC)cc1CNC(=O)c1cccc(S(=O)(=O)N2CCc3ccccc3C2)c1
[5]
  AC50: 3.08 µM (active)
[6]
  AC50: 24 µM (active)
[1]
  AC50: 2.39 µM (active)

## COc1ccc(C)cc1Cn1c(S(C)(=O)=O)nc2ccccc21
[4]
  EC50: > 260 µM (inactive)

## Cn1c(=O)c2cn(Cc3ccc(Cl)cc3)cc2n(C)c1=O
[2]
  EC50: > 195 µM (not active)

## O=C(/C=C/c1ccc(Cl)cc1)NCCSc1ccccc1
Cytochrome P450 2C9
  AC50: 5.01 µM (inconclusive)

## Cn1c(CCC(=O)OCC(=O)Nc2ccc(Oc3ccccc3)cc2)nc(=O)c2ccccc21
[4]
  EC50: > 260 µM (inactive)

## O=S(=O)(NC(=Nc1cccc2ccccc12)c1ccccc1)c1ccc(F)cc1
[4]
  EC50: > 260 µM (inactive)

## COc1ccc(S(=O)(=O)NCC(c2ccc(F)cc2)N2CCN(C)CC2)cc1 (stereo not given)
Streptokinase A
  EC50: > 150 µM (not active)
[3]
  EC50: > 150 µM (not active)
Streptococcus
  EC50: > 150 µM (not active)
